# In patent US20190256491A1, “Methods For Treatment Of 16P11.2 Microdeletion Syndrome” (Massachusetts Institute of Technology, priority 2012, published 2019):
# Entries after “also recorded” stand apart in the source; their conditions may differ.
# Assays:
# [1] = tested on: mGluR-LTD at the Schaffer collateral-CA1 synapse of hippocampal slices; assay: DHPG-LTD, hippocampal slice electrophysiology; parameters: species or system mouse; settings: CHX 60 μM, 40 min, DHPG 50 μM, 5 min
# Experimental: (§1) Electrophysiological experiments were performed at the Schaffer collateral-CA1 synapse of hippocampal slices prepared from p28 to p35 male mice using experimental protocols as previously described ((Auerbach et al., 2011)). Dorsal hippocampal slices (400 μm thick) were used in all recordings. Input-output functions were determined by incrementally (10 μA to 100 μA) stimulating the Schaffer collaterals and recording the resulting fEPSP response. Paired-pulse facilitation was conducted by applying two stimulus pulses at varying inter-stimulus-intervals (ISI). Facilitation was measured by taking the ratio of the fEPSP slope in response to stimulus 2 to that of stimulus 1. […] For paired-pulse low frequency stimulation (PP-LFS) slices were incubated in ACSF containing APV (50 μM)±CHX for 30 min. mGluR5-LTD was then induced by application (20 min) of paired-pulse stimulation (50 ms ISI) at 1 Hz, and synaptic responses were recorded for an additional 60 min.
# (§2) Group I mGluR mediated synaptic plasticity was assessed. mGluR-LTD can be induced either by chemical induction by pharmacological stimulation of mGluRs (DHPG-LTD) or electrical induction by applying a series of paired pulses at about 50 ms interval (PP-LFS-LTD). […]
# [2] = tested on: mGluR5-LTD at the Schaffer collateral-CA1 synapse of hippocampal slices; assay: PP-LFS LTD, hippocampal slice electrophysiology; parameters: species or system mouse; settings: ACSF with APV 50 μM ± CHX 30 min
# Experimental: as §1, §2
# [3] = tested on: chr7qF3 mutant mice (mouse model of human chr16p11.2 microdeletion) and WT mice; assay: Inhibitory avoidance extinction (IAE) test; assay type: in vivo
# Experimental: Inhibitory avoidance extinction (IAE) tests were performed as previously described with modification ((Dolen et al., 2007)). Briefly, 4-6 weeks male mice were divided into four groups according to genotype and CTEP treatment: WT+vehicle, WT+CTEP, Mutant+vehicle, and Mutant+CTEP. CTEP or vehicle was administered by oral gavage every other day for 4 weeks. The last dose was given about 16-20 hours prior to the training session. IA tests were conducted in a two-chambered Perspex box consisting of a lighted side and a dark side separated by a trap door. On the training day, mice were habituated in the behavioral room for about 2 hours before training. During training, a mouse was placed into the lit side of the chamber and allowed to explore for about 30 seconds before the trap door was opened. The ensuing time spent by the animal in the light chamber before entering the dark chamber was recorded as latency. Immediately after fully entering the dark side of the camber, subjects were given about a 2 sec mild foot shock (about 0.4 mA) and allowed to spend an additional 60 sec before being returned to their home-cage. The acquisition and expression of fear memory was tested at about 6, about 24, and about 48 hours post training. The testing protocol used was the same as the training protocol. Latencies to enter the dark side of the chamber were recorded and used as measurement of IAE performance. Statistical significance was determined using two-way ANOVA and post hoc Student's t-tests.
# Mice were evaluated in another hippocampus-associated behavioral paradigm: inhibitory avoidance (IA). IA is a multi-phase test used to assay memory formation and extinction. During the training session (0 hr), mice were placed in the light chamber of a two-chamber box. After a variable latency in the light side, they entered the dark side of the box where about a 2 sec foot-shock was delivered. Acquisition and extinction of the fear memory, as measured by the latency to re-enter the dark chamber from the lighted side, was tested 6 hr (acquisition) as well as about 24 hr and about 48 hr (extinction) after training. Experiments were conducted to determine: (1) if chr7qF3 mice had deficits similar to Fmrl KO mice in the IA test, and (2) if deficits were present, could the mGluR5 inhibitor CTEP treatment ameliorate them. Mice were divided into four groups: WT+vehicle, WT+CTEP, Mut+vehicle, and Mut+CTEP. CTEP was given by the same dosing regime previously used with Fmrl KO mice ((Michalon et al., 2012)).
# [4] = tested on: pre-synaptic glutamate release, Schaffer collateral-CA1 synapse of hippocampal slices; assay: Paired-pulse facilitation at beginning and end of DHPG-LTD experiment; parameters: species or system mouse; settings: both WT and mutant slices; independent of CHX treatment
# Experimental: as §1
# To test whether the difference in CHX sensitivity between WT and mutant slices was due to a different pre-synaptic response to either DHPG treatment or PP-LFS induction, paired pulse facilitation at the beginning and end of DHPG-LTD experiment (FIGS. 2C and 2D) was assessed. […]
compound,measurement,setting,value
"C[C@@H]1C[C@@H]([C@H](O)CC2CC(=O)NC(=O)C2)C(=O)[C@@H](C)C1 [CHX, Cycloheximide]",effect on DHPG-induced LTD,[1]; WT slices,significantly blocked
same,effect on DHPG-induced LTD,[1]; chr7qF3 mutant slices,no effect; also recorded: remains unaffected
same,effect on PP-LFS LTD,[2]; WT slices,almost completely blocked
same,effect on PP-LFS LTD,[2]; chr7qF3 mutant slices,no effect; also recorded: remains unaffected
"Cc1nc(C#Cc2ccnc(Cl)c2)c(C)n1-c1ccc(OC(F)(F)F)cc1 [CTEP, 2-chloro-4-((2,5-dimethyl-1-(4-(trifluoromethoxy)phenyl)-1H-imidazol-4-yl)ethynyl)pyridine]",latency to re-enter the chamber,"[3]; Chr7qF3 mutant mice, 6, 24 and 48 hours post training, chronic oral gavage every other day for 4 weeks",significantly lengthens
same,extinction of fear memory at 48 hr,"[3]; Mut+CTEP, similar to the two wildtype groups",significant extinction
same,latency to re-enter the dark chamber at 6 hr (acquisition),"[3]; Mut+CTEP, to a level comparable to WT+vehicle mice",dramatically lengthened
same,effect on latency to re-enter the chamber,"[3]; WT mice, WT+CTEP vs WT+vehicle",no effect
same,extinction of fear memory at 48 hr,[3]; WT+CTEP,exhibited extinction
same,cognitive impairment / fear memory deficits in IAE test,"[3]; chr7qF3 mutant mice, chronic oral treatment",significantly ameliorates; also recorded: ameliorated
"N[C@H](C(=O)O)c1cc(O)cc(O)c1 [DHPG, S-3,5-dihydrozyphenylglycine]",paired pulse facilitation after DHPG treatment,[4],increased paired pulse facilitation
